Where no end group is shown, it is not given here.

The experiment concerns the target T1, hCRHR2α G13 (Homo sapiens, UniProt Q13324).
T1 construct: expressed in transfected cells; host or cells: HEK293 cells (Millipore Sigma), transient PEI co-transfection with biosensor plasmids at Domain Therapeutics
T1 sequence (Q13324 1-411): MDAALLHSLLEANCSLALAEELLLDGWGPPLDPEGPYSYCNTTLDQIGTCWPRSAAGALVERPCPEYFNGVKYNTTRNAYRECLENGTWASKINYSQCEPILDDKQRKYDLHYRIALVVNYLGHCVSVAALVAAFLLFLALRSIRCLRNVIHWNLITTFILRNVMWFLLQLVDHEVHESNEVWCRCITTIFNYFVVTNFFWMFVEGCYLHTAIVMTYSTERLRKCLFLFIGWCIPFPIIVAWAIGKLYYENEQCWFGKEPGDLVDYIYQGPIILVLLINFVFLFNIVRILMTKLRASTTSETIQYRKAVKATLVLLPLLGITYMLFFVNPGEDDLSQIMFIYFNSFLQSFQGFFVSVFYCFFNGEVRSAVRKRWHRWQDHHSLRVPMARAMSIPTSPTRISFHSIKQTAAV
In words: ebBRET EMTA, G13 biosensor. It is filed as cell-based. As to conditions: HEK293 cells, CRHR2a, n = 2 independent experiments. Here is the method:
Typically, GPCR desensitization is carried out through the recruitment of β-Arrestins or alternative G-proteins to the receptor. To identify whether these proteins are recruited to CRHR2 in response to UCN2, enhanced bystander bioluminescence resonance energy transfer (ebBRET)-based effector membrane translocation assays (EMTA) were carried out in HEK293 cells[28],[29]. Cells were co-transfected with plasmids expressing unmodified CRHR2a (alpha isoform) and one of various pathway-specific biosensors. […]
Effector membrane translocation biosensor assays (bioSensAll®) were conducted at Domain Therapeutics NA Inc. (Montreal, QC, Canada) and described in cells[28],[29]. […] Briefly, DNA and PEI were diluted separately in 150 mM NaCl, mixed and then incubated for at least 20 min at room temperature (note: salmon sperm DNA (Invitrogen) was used to adjust the total amount of DNA transfected to a final quantity of 1 ug per mL of cell culture to be transfected). During the 20-minute incubation, HEK293 cells were detached, counted and resuspended into cell culture medium to a final density of 350,000 cells per mL. […] Cells were then incubated at room temperature for 10 min and BRET readings subsequently collected with a 0.4 s integration time on a Synergy NEO plate reader (BioTek Instruments, Inc., USA; filters: 400 nm/70 nm, 515 nm/20 nm). […]

Turning to “IVLSLDVPIGLLQILLEQARARAAREQATTNARILARVGHC-NH2 (C-terminus assumed) [UCN2, Urocortin 2]”, the G13 recruitment result was “not recruited”.

The values above are taken from publication PMC10319809, “Chronic UCN2 treatment desensitizes CRHR2 and improves insulin sensitivity” (Nature Communications, 2023).
